Reference: US12692254B2, “Benzimidazole inhibitors of PAD enzymes” (BRISTOL-MYERS SQUIBB COMPANY, priority 2018, dated 2026)

Biological target: human PAD4 (hPAD4) (Homo sapiens, UniProt Q9UM07)
Test: RFMS human PAD4 functional assay (rapid-fire mass spectrum)
Format: biochemical
Details: 5 nM hPAD4 enzyme, 250 μM BAEE, 50 μM Calcium; 30 min preincubation, 90 min reaction at 37° C.
Experimental: Compounds of the present invention were assayed as inhibitors of PAD4 using the assay protocol described below.
RFMS tinman PAD4 Functional Assay:
Compounds were solubilized in 100% DMSO to achieve a 10 mM compound concentration. Compound stock solutions were stored at RT. A series of dilutions were prepared in DMSO and mixed 8 times with 20 μl, mixing volume. Final top concentration of compound in the assay is 50 μM. […] 1-90 min enzyme/substrate reaction, 30 min reaction with phenyl glyoxal at 37° C. • Stop solution: 40 μl 5% TCA in ACN
0.13 μL of compound solution was added to 13 μL of 10 nM PAD4 in assay buffer. After 30 min 13 μl of 500 μM of BAEE was added in 25 mM hepes, pH 7.5, 5 mM NaCl, 1 mM DTT, 0.2 mg/ml BS A, 0.01% CHAPS, 50 μM Calcium, 5 μM TPEN was added and the reaction incubated for 90 min at 37° C. The enzymatic reaction was quenched by addition of 15 μl of 6.1N TCA, 100% Final Concentration is 20%, 35 μl of 8.5 mM phenyl glyoxal (final concentration 4 mM) is then added and the reaction is incubated for 30 min at 37° C.
After 30 minutes the plates are spun down to remove all precipitate. The enzyme reaction was quenched with an equal volume of methanol containing internal standard (modified citrulline). Samples were loaded onto the Rapid Fire RF300 system (Agilent) wherein they were first sipped for 1000 ms and then directly loaded to a C18 separations cartridge using a mixture of acetonitrile containing 0.01% formic acid for 3000 ms desalting. The flow rate of the mobile phase was 1.5 ml/min.
The dwell time for each transition was set at 200 ms, and the ESI voltage was used at 5500 with a source temperature of 400° C. Extracted ion peaks for each transition were integrated using the Rapid Fire Integrator software. Peak area of analyte was normalized with internal standard).

Chain of human PAD4 (hPAD4) (Q9UM07 whole entry): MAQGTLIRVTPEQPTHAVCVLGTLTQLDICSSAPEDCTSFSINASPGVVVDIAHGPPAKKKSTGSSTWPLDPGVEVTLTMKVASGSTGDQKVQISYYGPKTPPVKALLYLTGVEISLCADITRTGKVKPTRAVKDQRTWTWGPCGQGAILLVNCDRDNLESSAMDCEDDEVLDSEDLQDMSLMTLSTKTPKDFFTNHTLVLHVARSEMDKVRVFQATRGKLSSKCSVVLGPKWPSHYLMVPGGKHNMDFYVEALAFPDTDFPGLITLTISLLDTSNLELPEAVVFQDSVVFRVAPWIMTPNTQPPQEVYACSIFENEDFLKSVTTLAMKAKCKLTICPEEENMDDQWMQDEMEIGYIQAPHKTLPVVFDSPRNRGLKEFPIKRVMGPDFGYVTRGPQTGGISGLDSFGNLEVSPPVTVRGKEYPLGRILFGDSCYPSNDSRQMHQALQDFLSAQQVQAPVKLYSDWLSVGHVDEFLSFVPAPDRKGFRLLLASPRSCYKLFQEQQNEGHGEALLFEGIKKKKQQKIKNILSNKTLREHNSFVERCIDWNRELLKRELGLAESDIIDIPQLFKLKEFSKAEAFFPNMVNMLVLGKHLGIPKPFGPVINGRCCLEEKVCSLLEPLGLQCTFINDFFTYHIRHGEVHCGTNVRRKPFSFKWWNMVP

IC50	SMILES
93 nM	COc1cc(C(=O)N2C[C@H]3CC[C@@H]2[C@@H]3N)cc2nc(-c3cc4cccnc4n3CC3CC3)n(CC3CN(c4ncncc4C#N)C3)c12 [Example 37, 4-[3-({5-[(1R,4R,7R)-7-amino-2-azabicyclo[2.2.1]heptane-2-carbonyl]-2-[1-(cyclopropylmethyl)-1H-pyrrolo[2,3-b]pyridin-2-yl]-7-methoxy-1H-1,3-benzodiazol-1-yl}methyl)azetidin-1-yl]pyrimidine-5-carbonitrile]
94 nM	COc1cc(C(=O)N2CC3CCC2[C@@H]3N)cc2nc(-c3cc4cccnc4n3CC3CC3)n(CC3CN(c4cc(Cl)cnc4C#N)C3)c12 (stereo partly drawn) [Example 38, 3-[3-({5-[(1R,4R,7R)-7-amino-2-azabicyclo[2.2.1]heptane-2-carbonyl]-2-[1-(cyclopropylmethyl)-1H-pyrrolo[2,3-b]pyridin-2-yl]-7-methoxy-1H-1,3-benzodiazol-l-yl}methyl)azetidin-1-yl]-5-chloropyridine-2-carbonitrile]
94 nM	COc1cc(C(=O)N2C[C@H]3CC[C@@H]2[C@@H]3N)cc2nc(-c3cc4cccnc4n3C)n(CC3CN(c4nccnc4C#N)C3)c12 [Example 39, 3-[3-({5-[(1R,4R,7R)-7-amino-2-azabicyclo[2.2.1]heptane-2-carbonyl]-7-methoxy-2-{1-methyl-1H-pyrrolo[2,3-b]pyridin-2-yl}-1H-1,3-benzodiazol-1-yl}methyl)azetidin-1-yl]pyrazine-2-carbonitrile]
98 nM	COc1cc(C(=O)N2C[C@H]3CC[C@@H]2[C@@H]3N)cc2nc(-c3cc4cccnc4n3C)n(CC3CN(c4cncc(C#N)n4)C3)c12 [Example 40, 6-[3-({5-[(1R,4R,7R)-7-amino-2-azabicyclo[2.2.1]heptane-2-carbonyl]-7-methoxy-2-{1-methyl-1H-pyrrolo[2,3-b]pyridin-2-yl}-1H-1,3-benzodiazol-1-yl}methyl)azetidin-1-yl]pyrazine-2-carbonitrile]
100 nM	COc1cc(C(=O)N2C[C@H]3CC[C@@H]2[C@@H]3N)cc2nc(-c3cc4ccccc4n3C)n(CC3CN(c4cncc(C#N)n4)C3)c12 [Example 41, 6-[3-({5-[(1R,4R,7R)-7-amino-2-azabicyclo[2.2.1]heptane-2-carbonyl]-7-methoxy-2-(1-methyl-1H-indol-2-yl)-1H-1,3-benzodiazol-1-yl}methyl)azetidin-1-yl]pyrazine-2-carbonitrile]
102 nM	COc1cc(C(=O)N2C[C@H]3CC[C@@H]2[C@@H]3N)cc2nc(-c3cc4cc(Cl)ccc4n3C)n(CC3CN(c4ccnc(C#N)n4)C3)c12 [Example 42, 4-[3-({5-[(1R,4R,7R)-7-amino-2-azabicyclo[2.2.1]heptane-2-carbonyl]-2-(5-chloro-1-methyl-1H-indol-2-yl)-7-methoxy-1H-1,3-benzodiazol-1-yl}methyl)azetidin-1-yl]pyrimidine-2-carbonitrile]

The next lines start with the compound.

SMILES	IC50
COc1ccc2cc(-c3nc4cc(C(=O)N5C[C@H]6CC[C@@H]5[C@@H]6N)cc(OC)c4n3CC3CN(c4ncncc4C#N)C3)n(CC3CC3)c2n1 [Example 24, 4-[3-({5-[(1R,4R,7R)-7-amino-2-azabicyclo[2.2.1]heptane-2-carbonyl]-2-[1-(cyclopropylmethyl)-6-methoxy-1H-pyrrolo[2,3-b]pyridin-2-yl]-7-methoxy-1H-1,3-benzodiazol-1-yl}methyl)azetidin-1-yl]pyrimidine-5-carbonitrile]	68 nM
COc1cc(C(=O)N2C[C@H]3CC[C@@H]2[C@@H]3N)cc2nc(-c3cc4cccnc4n3CC3CC3)n(CC3CN(c4ccc(C#N)cc4)C3)c12 [Example 25, 4-[3-({5-[(1R,4R,7R)-7-amino-2-azabicyclo[2.2.1]heptane-2-carbonyl]-2-[1-(cyclopropylmethyl)-1H-pyrrolo[2,3-b]pyridin-2-yl]-7-methoxy-1H-1,3-benzodiazol-1-yl}methyl)azetidin-1-yl]benzonitrile]	72 nM
COc1cc(C(=O)N2C[C@H]3CC[C@@H]2[C@@H]3N)cc2nc(-c3cc4cccnc4n3C)n(CC3CN(c4ccnc(C#N)n4)C3)c12 [Example 26, 4-[3-({5-[(1R,4R,7R)-7-amino-2-azabicyclo[2.2.1]heptane-2-carbonyl]-7-methoxy-2-{1-methyl-1H-pyrrolo[2,3-b]pyridin-2-yl}-1H-1,3-benzodiazol-1-yl}methyl)azetidin-1-yl]pyrimidine-2-carbonitrile]	72 nM
COc1cc(C(=O)N2C[C@H]3CC[C@@H]2[C@@H]3N)cc2nc(-c3cc4cccnc4n3CC3CC3)n(CC3CN(c4cncnc4)C3)c12 [Example 27, (1R,4R,7R)-2-{2-[1-(cyclopropylmethyl)-1H-pyrrolo[2,3-b]pyridin-2-yl]-7-methoxy-1-{[1-(pyrimidin-5-yl)azetidin-3-yl]methyl}-1H-1,3-benzodiazole-5-carbonyl}-2-azabicyclo[2.2.1]heptan-7-amine]	72 nM
COc1cc(C(=O)N2C[C@H]3CC[C@@H]2[C@@H]3N)cc2nc(-c3cc4cccnc4n3CC3CC3)n(CC3CN(c4ncc(C#N)cc4Br)C3)c12 [Example 29, 6-[3-({5-[(1R,4R,7R)-7-amino-2-azabicyclo[2.2.1]heptane-2-carbonyl]-2-[1-(cyclopropylmethyl)-1H-pyrrolo[2,3-b]pyridin-2-yl]-7-methoxy-1H-1,3-benzodiazol-1-yl}methyl)azetidin-1-yl]-5-bromopyridine-3-carbonitrile]	78 nM
COc1cc(C(=O)N2C[C@H]3CC[C@@H]2[C@@H]3N)cc2nc(-c3cc4cccnc4n3CC3CC3)n(CC3CN(c4ncccn4)C3)c12 [Example 30, (1R,4R,7R)-2-{2-[1-(cyclopropylmethyl)-1H-pyrrolo[2,3-b]pyridin-2-yl]-7-methoxy-1-{[1-(pyrimidin-2-yl)azetidin-3-yl]methyl}-1H-1,3-benzodiazole-5-carbonyl}-2-azabicyclo[2.2.1]heptan-7-amine]	84 nM
COc1cc(C(=O)N2C[C@H]3CC[C@@H]2[C@@H]3N)cc2nc(-c3cc4cccnc4n3CC3CC3)n(CC3CN(c4ccnc(C#N)c4)C3)c12 [Example 31, 4-[3-({5-[(1R,4R,7R)-7-amino-2-azabicyclo[2.2.1]heptane-2-carbonyl]-2-[1-(cyclopropylmethyl)-1H-pyrrolo[2,3-b]pyridin-2-yl]-7-methoxy-1H-1,3-benzodiazol-1-yl}methyl)azetidin-1-yl]pyridine-2-carbonitrile]	85 nM
COc1cc(C(=O)N2C[C@H]3CC[C@@H]2[C@@H]3N)cc2nc(-c3cc4cccnc4n3CC3CC3)n(CC3CN(c4ncc(Br)cn4)C3)c12 [Example 32, (1R,4R,7R)-2-(1-{[1-(5-bromopyrimidin-2-yl)azetidin-3-yl]methyl}-2-[1-(cyclopropylmethyl)-1H-pyrrolo[2,3-b]pyridin-2-yl]-7-methoxy-1H-1,3-benzodiazole-5-carbonyl)-2-azabicyclo[2.2.1]heptan-7-amine]	86 nM
COc1cnc(N2CC(Cn3c(-c4cc5cccnc5n4CC4CC4)nc4cc(C(=O)N5C[C@H]6CC[C@@H]5[C@@H]6N)cc(OC)c43)C2)cn1 [Example 33, (1R,4R,7R)-2-{2-[1-(cyclopropylmethyl)-1H-pyrrolo[2,3-b]pyridin-2-yl]-7-methoxy-1-{[1-(5-methoxypyrazin-2-yl)azetidin-3-yl]methyl}-1H-1,3-benzodiazole-5-carbonyl}-2-azabicyclo[2.2.1]heptan-7-amine]	87 nM
COc1cc(C(=O)N2C[C@H](N)C[C@@H](F)C2)cc2nc(-c3cc4ccccc4n3CC3CC3)n(CC3CN(c4cncc(C#N)c4)C3)c12 [Example 34, 5-[3-({5-[(3R,5R)-3-amino-5-fluoropiperidine-1-carbonyl]-2-[1-(cyclopropylmethyl)-1H-indol-2-yl]-7-methoxy-1H-1,3-benzodiazol-1-yl}methyl)azetidin-1-yl]pyridine-3-carbonitrile]	88 nM
COc1ccc2cc(-c3nc4cc(C(=O)N5C[C@H]6CC[C@@H]5[C@@H]6N)cc(OC)c4n3CC3CN(c4cccnc4C#N)C3)n(CC3CC3)c2n1 [Example 35, 3-[3-({5-[(1R,4R,7R)-7-amino-2-azabicyclo[2.2.1]heptane-2-carbonyl]-2-[1-(cyclopropylmethyl)-6-methoxy-1H-pyrrolo[2,3-b]pyridin-2-yl]-7-methoxy-1H-1,3-benzodiazol-1-yl}methyl)azetidin-1-yl]pyridine-2-carbonitrile]	90 nM
COc1cc(C(=O)N2C[C@H]3CC[C@@H]2[C@@H]3N)cc2nc(-c3cc4cccnc4n3CC3CC3)n(CC3CN(c4cccnc4C#N)C3)c12 [Example 36, 3-[3-({5-[(1R,4R,7R)-7-amino-2-azabicyclo[2.2.1]heptane-2-carbonyl]-2-[1-(cyclopropylmethyl)-1H-pyrrolo[2,3-b]pyridin-2-yl]-7-methoxy-1H-1,3-benzodiazol-1-yl}methyl)azetidin-1-yl]pyridine-2-carbonitrile]	92 nM
